{
  "source": "patent US8586747B2",
  "about": "“3,3-dimethyl tetrahydroquinoline derivatives” (Hoffmann-La Roche Inc., priority 2010, dated 2013)",
  "system": "AMP-activated protein kinase (AMPK)",
  "experiment": "ADP Quest assay for AMPK activators",
  "type": "biochemical",
  "design": "key: fold AMPK activation with vs without activator at 30 µM",
  "details": "fold of AMPK activation to phosphorylate SAMS peptide without and with an activator at the concentration of 30 µM",
  "procedure": "ADP Quest™ Assay for AMPK Activators\nThis method evaluates AMP-activated protein kinase (AMPK) activity through detecting the accumulation of ADP product using an ADP Quest kit and determining the E30 values of the small molecular AMPK activators. ADP Quest kit (DiscoveRx, Fremont, Calif.) is stored at −20° C. before use. Before an experiment, thaw the kit (include assay buffer, ADP standard solution, reagent A and reagent B) and equilibrate to room temperature. Dispense the ADP Quest reagents into single-use aliquots and store at −20° C. The compound concentrations typically range from 0 µM to 100 µM by 2-fold dilution. AMP concentrations range from […] to 1 mM as the reference control. In an assay, thaw and equilibrate the assay buffer, reagent A and reagent B to room temperature for 30 minutes prior to use. Mix ATP, SAMS peptide substrate and compound, and place them into the 384-well assay plate. Add reagent A and B based on the assay kit protocol. Incubate the assay plate at room temperature for 30 minutes after addition the mixture followed by the addition of AMPK protein (Invitrogen, CA) to initiate the AMPK phosphorylation reaction. At the same time, reactions with AMPK activator AMP in the absence of enzyme is included as blank control. The reaction fluorescence signal is monitored and recorded on Envision in kinetic mode with the excitation wavelength of 530 nm and emission wavelength of 590 nm. The E30 value, defined as the fold of AMPK activation to phosphorylate SAMS peptide without and with an activator at the concentration of 30 µM, is calculated and analyzed using Prism 5.0.",
  "data": [
    {"smiles": "CC(C)(CO)Nc1cccc(C2Nc3ccc(C(=O)O)cc3CC2(C)C)c1", "note": "(stereo not shown) [Example 29, 2-[3-(2-Hydroxy-1,1-dimethyl-ethylamino)-phenyl]-3,3-dimethyl-1,2,3,4-tetrahydro-quinoline-6-carboxylic acid]", "values": [
      {"measurement": "E30", "value": 1.34}
    ]},
    {"smiles": "CN(C)C(=O)N(C)c1cccc(C2Nc3ccc(C(=O)O)cc3CC2(C)C)c1", "note": "(stereo not shown) [Example 30, 3,3-Dimethyl-2-[3-(trimethyl-ureido)-phenyl]-1,2,3,4-tetrahydro-quinoline-6-carboxylic acid]", "values": [
      {"measurement": "E30", "value": 1.45}
    ]},
    {"smiles": "CN(C(N)=O)c1cccc(C2Nc3ccc(C(=O)O)cc3CC2(C)C)c1", "note": "(stereo not shown) [Example 31, 3,3-Dimethyl-2-[3-(1-methyl-ureido)-phenyl]-1,2,3,4-tetrahydro-quinoline-6-carboxylic acid]", "values": [
      {"measurement": "E30", "value": 1.33}
    ]},
    {"smiles": "CC(C)N(C(N)=O)c1cccc(C2Nc3ccc(C(=O)O)cc3CC2(C)C)c1", "note": "(stereo not shown) [Example 32, 2-[3-(1-Isopropyl-ureido)-phenyl]-3,3-dimethyl-1,2,3,4-tetrahydro-quinoline-6-carboxylic acid]", "values": [
      {"measurement": "E30", "value": 1.38}
    ]},
    {"smiles": "CC1(C)Cc2cc(C(=O)O)ccc2NC1c1cccc(N2C(=O)OCC2(C)C)c1", "note": "(stereo not shown) [Example 34, 2-[3-(4,4-Dimethyl-2-oxo-oxazolidine-3-yl)-phenyl]-3,3-dimethyl-1,2,3,4-tetrahydro-quinoline-6-carboxylic acid]", "values": [
      {"measurement": "E30", "value": 1.15}
    ]},
    {"smiles": "CC1(C)Cc2cc(C(=O)O)ccc2NC1c1cccc(NC(=O)N2CCCC2)c1", "note": "(stereo not shown) [Example 35, 3,3-Dimethyl-2-{3-[(pyrrolidine-1-carbonyl)-amino]-phenyl}-1,2,3,4-tetrahydro-quinoline-6-carboxylic acid]", "values": [
      {"measurement": "E30", "value": 1.41}
    ]},
    {"smiles": "CCN(CC)C(=O)Nc1cccc(C2Nc3ccc(C(=O)O)cc3CC2(C)C)c1", "note": "(stereo not shown) [Example 36, 2-[3-(3,3-Diethyl-ureido)-phenyl}-3,3-dimethyl-1,2,3,4-tetrahydro-quinoline-6-carboxylic acid]", "values": [
      {"measurement": "E30", "value": 1.37}
    ]},
    {"smiles": "CC(C)(Nc1cccc(C2Nc3ccc(Cl)cc3CC2(C)C)c1)C(=O)O", "note": "(stereo not shown) [Example 37, 2-[3-(6-Chloro-3,3-dimethyl-1,2,3,4-tetrahydro-quinolin-2-yl)-phenylamino]-2-methyl-propionic acid]", "values": [
      {"measurement": "E30", "value": 2.19}
    ]},
    {"smiles": "CC(C)(Nc1cccc(C2Nc3ccc(C#N)cc3CC2(C)C)c1)C(=O)O", "note": "(stereo not shown) [Example 38, 2-[3-(6-Cyano-3,3-dimethyl-1,2,3,4-tetrahydro-quinolin-2-yl)-phenylamino]-2-methyl-propionic acid]", "values": [
      {"measurement": "E30", "value": 2.12}
    ]},
    {"smiles": "CNC(=O)C(C)(C)Nc1cccc(C2Nc3ccc(C(=O)NS(C)(=O)=O)cc3CC2(C)C)c1", "note": "(stereo not shown) [Example 39, 2-[3-(6-Methanesulfonylaminocarbonyl-3,3-dimethyl-1,2,3,4-tetrahydro-quinolin-2-yl)-phenylamino]-2,N-dimethyl-propionamide]", "values": [
      {"measurement": "E30", "value": 1.36}
    ]},
    {"smiles": "CN(C)C(=O)C(C)(C)Nc1cccc(C2Nc3ccc(C(=O)O)cc3CC2(C)C)c1", "note": "(stereo not shown) [Example 40, 2-[3-(1-Dimethylcarbamoyl-1-methyl-ethylamino)-phenyl]-3,3-dimethyl-1,2,3,4-tetrahydro-quinoline-6-carboxylic acid]", "values": [
      {"measurement": "E30", "value": 1.35}
    ]},
    {"smiles": "CC(C)(Nc1cccc(C2Nc3ccc(C(=O)O)cc3CC2(C)C)c1)C(=O)N1CCOCC1", "note": "(stereo not shown) [Example 41, 2-[3-(1,1-Dimethyl-2-morpholin-4-yl-2-oxo-ethylamino)-phenyl]-3,3-dimethyl-1,2,3,4-tetrahydro-quinoline-6-carboxylic acid]", "values": [
      {"measurement": "E30", "value": 1.35}
    ]},
    {"smiles": "CN1CCN(C(=O)C(C)(C)Nc2cccc(C3Nc4ccc(C(=O)O)cc4CC3(C)C)c2)CC1", "note": "(stereo not shown) [Example 42, 2-{3-[1,1-Dimethyl-2-(4-methyl-piperazin-1-yl)-2-oxo-ethylamino]-phenyl}-3,3-dimethyl-1,2,3,4-tetrahydro-quinoline-6-carboxylic acid]", "values": [
      {"measurement": "E30", "value": 1.31}
    ]},
    {"smiles": "CC(C)NC(=O)C(C)(C)Nc1cccc(C2Nc3ccc(C(=O)NS(C)(=O)=O)cc3CC2(C)C)c1", "note": "(stereo not shown) [Example 43, N-isopropyl-2-[3-(6-methanesulfonylaminocarbonyl-3,3-dimethyl-1,2,3,4-tetrahydro-quinolin-2-yl)-phenylamino]-2-methyl-propionamide]", "values": [
      {"measurement": "E30", "value": 1.29}
    ]},
    {"smiles": "CC1(C)Cc2cc(C(=O)O)ccc2NC1c1cccc(NC2(C(=O)O)CC2)c1", "note": "(stereo not shown) [Example 44, 2-[3-(1-Carboxy-cyclopropylamino)-phenyl]-3,3-dimethyl-1,2,3,4-tetrahydro-quinoline-6-carboxylic acid]", "values": [
      {"measurement": "E30", "value": 2.67}
    ]},
    {"smiles": "CC(C)(Nc1cccc(C2Nc3ccc(C(F)(F)F)cc3CC2(C)C)c1)C(=O)O", "note": "(stereo not shown) [Example 45, 2-[3-(3,3-Dimethyl-6-trifluoromethyl-1,2,3,4-tetrahydro-quinolin-2-yl)-phenylamino]-2-methyl-propionic acid]", "values": [
      {"measurement": "E30", "value": 2.41}
    ]},
    {"smiles": "CC(C)(C)c1ccc(-c2cncc(C3Nc4ccc(C(=O)O)cc4CC3(C)C)c2)cc1", "note": "(stereo not shown) [Example 46, 2-[5-(4-tert-Butyl-phenyl)-pyridin-3-yl]-3,3-dimethyl-1,2,3,4-tetrahydro-quinoline-6-carboxylic acid]", "values": [
      {"measurement": "E30", "value": 1.46}
    ]},
    {"smiles": "CNC(=O)C(C)(C)Nc1cccc(C2Nc3ccc(C(=O)NS(=O)(=O)C4CC4)cc3CC2(C)C)c1", "note": "(stereo not shown) [Example 47, 2-[3-(6-Cyclopropanesulfonylaminocarbonyl-3,3-dimethyl-1,2,3,4-tetrahydro-quinolin-2-yl)-phenylamino]-2,N-dimethyl-propionamide]", "values": [
      {"measurement": "E30", "value": 1.23}
    ]},
    {"smiles": "CC(C)(Nc1cccc(C2Nc3ccc(S(C)(=O)=O)cc3CC2(C)C)c1)C(=O)O", "note": "(stereo not shown) [Example 48, 2-[3-(6-Methanesulfonyl-3,3-dimethyl-1,2,3,4-tetrahydro-quinolin-2-yl)-phenylamino]-2-methyl-propionic acid]", "values": [
      {"measurement": "E30", "value": 2.62}
    ]},
    {"smiles": "CC(C)(C)c1ccc(-c2cc(F)cc(C3Nc4ccc(C(=O)NS(C)(=O)=O)cc4CC3(C)C)c2)cc1", "note": "(stereo not shown) [Example 49, N-[2-(4′-tert-Butyl-5-fluoro-biphenyl-3-yl)-3,3-dimethyl-1,2,3,4-tetrahydro-quinoline-6-carbonyl]-methanesulfonamide]", "values": [
      {"measurement": "E30", "value": 2.25}
    ]},
    {"smiles": "CN(C)c1cc(F)cc(C2Nc3ccc(C(=O)NS(C)(=O)=O)cc3CC2(C)C)c1", "note": "(stereo not shown) [Example 50, N-[2-(3-Dimethylamino-5-fluoro-phenyl)-3,3-dimethyl-1,2,3,4-tetrahydro-quinoline-6-carbonyl]-methanesulfonamide]", "values": [
      {"measurement": "E30", "value": 1.61}
    ]},
    {"smiles": "CC1(C)Cc2cc(C(=O)O)ccc2NC1c1cc(F)cc(-c2ccc(C#N)cc2)c1", "note": "(stereo not shown) [Example 51, 2-(4′-Cyano-5-fluoro-biphenyl-3-yl)-3,3-dimethyl-1,2,3,4-tetrahydro-quinoline-6-carboxylic acid]", "values": [
      {"measurement": "E30", "value": 1.42}
    ]},
    {"smiles": "CC1(C)Cc2cc(C(=O)NS(=O)(=O)C3CC3)ccc2NC1c1cc(F)cc(F)c1", "note": "(stereo not shown) [Example 52, Cyclopropanesulfonic acid [2-(3,5-difluoro-phenyl)-3,3-dimethyl-1,2,3,4-tetrahydro-quinoline-6-carbonyl]-amide]", "values": [
      {"measurement": "E30", "value": 1.35}
    ]},
    {"smiles": "CC1(C)Cc2cc(C(=O)O)ccc2NC1c1cc(N2CCOCC2)ccc1F", "note": "(stereo not shown) [Example 53, 2-(2-Fluoro-5-morpholin-4-yl-phenyl)-3,3-dimethyl-1,2,3,4-tetrahydro-quinoline-6-carboxylic acid]", "values": [
      {"measurement": "E30", "value": 1.33}
    ]},
    {"smiles": "CC1(C)Cc2cc(C(=O)NS(=O)(=O)C3CC3)ccc2NC1c1cc(N2CCOCC2)ccc1F", "note": "(stereo not shown) [Example 54, Cyclopropanesulfonic acid [2-(2-fluoro-5-morpholin-4-yl-phenyl)-3,3-dimethyl-1,2,3,4-tetrahydro-quinoline-6-carbonyl]-amide]", "values": [
      {"measurement": "E30", "value": 1.28}
    ]},
    {"smiles": "CC1(C)Cc2cc(C(=O)O)ccc2NC1c1cc(Cl)cc(N2CCOCC2)c1", "note": "(stereo not shown) [Example 55, 2-(3-Chloro-5-morpholin-4-yl-phenyl)-3,3-dimethyl-1,2,3,4-tetrahydro-quinoline-6-carboxylic acid]", "values": [
      {"measurement": "E30", "value": 1.28}
    ]},
    {"smiles": "CC1(C)Cc2cc(C(=O)NS(=O)(=O)C3CC3)ccc2NC1c1cc(Cl)cc(N2CCOCC2)c1", "note": "(stereo not shown) [Example 56, Cyclopropanesulfonic acid [2-(3-chloro-5-morpholin-4-yl-phenyl)-3,3-dimethyl-1,2,3,4-tetrahydro-quinoline-6-carbonyl]-amide]", "values": [
      {"measurement": "E30", "value": 1.26}
    ]},
    {"smiles": "CC1(C)Cc2cc(C(=O)NS(C)(=O)=O)ccc2NC1c1cc(Cl)cc(N2CCOCC2)c1", "note": "(stereo not shown) [Example 57, N-[2-(3-Chloro-5-morpholin-4-yl-phenyl)-3,3-dimethyl-1,2,3,4-tetrahydro-quinoline-6-carbonyl]-methanesulfonamide]", "values": [
      {"measurement": "E30", "value": 1.25}
    ]},
    {"smiles": "CC1(C)Cc2cc(C(=O)NS(=O)(=O)C3CC3)ccc2NC1c1ccc(F)c(N2CCOCC2)c1", "note": "(stereo not shown) [Example 58, Cyclopropanesulfonic acid [2-(4-fluoro-3-morpholin-4-yl-phenyl)-3,3-dimethyl-1,2,3,4-tetrahydro-quinoline-6-carbonyl]-amide]", "values": [
      {"measurement": "E30", "value": 1.22}
    ]},
    {"smiles": "CC1(C)Cc2cc(C(=O)NS(C)(=O)=O)ccc2NC1c1ccc(F)c(N2CCOCC2)c1", "note": "(stereo not shown) [Example 59, N-[2-(4-Fluoro-3-morpholin-4-yl-phenyl)-3,3-dimethyl-1,2,3,4-tetrahydro-quinoline-6-carbonyl]-methanesulfonamide]", "values": [
      {"measurement": "E30", "value": 1.2}
    ]},
    {"smiles": "Cc1ccc(F)cc1C1Nc2ccc(C(=O)NS(=O)(=O)C3CC3)cc2CC1(C)C", "note": "(stereo not shown) [Example 60, Cyclopropanesulfonic acid [2-(5-fluoro-2-methyl-phenyl)-3,3-dimethyl-1,2,3,4-tetrahydro-quinoline-6-carbonyl]-amide]", "values": [
      {"measurement": "E30", "value": 1.2}
    ]}
  ]
}
